{
  "source": "patent US4048167A",
  "about": "“N,N-disubstituted derivatives of 3-carboxamide or 3-thiocarboxamide-7-(3-chloro-2-propenyl)-1,3,5,7-tetraazabicyclo(3.3.1) nonane and preparation II” (The Dow Chemical Company, priority 1976, dated 1977)",
  "type_in_all_cases": "cell-based",
  "key": {"E. coli": {"test_system": "E. coli", "assay": "agar Petri dish dilution test, E. coli", "details": "Escherichia coli"}, "S. aureus": {"test_system": "S. aureus", "assay": "agar Petri dish dilution test, S. aureus", "details": "Staphylococcus aureus"}, "[1]": {"test_system": "Pseudomas Species Str. 10", "assay": "agar Petri dish dilution test, Pseudomas Species Str. 10", "details": "read-out: MIC, Ps"}, "A. aerogenes": {"test_system": "A. aerogenes", "assay": "agar Petri dish dilution test, A. aerogenes", "details": "Klebsiella aerogenes"}, "B. subtilis": {"test_system": "B. subtilis", "assay": "agar Petri dish dilution test, B. subtilis", "details": "Bacillus subtilis"}, "mentagrophytes": {"test_system": "mentagrophytes", "assay": "agar Petri dish dilution test, mentagrophytes"}, "M. phlei": {"test_system": "M. phlei", "assay": "agar Petri dish dilution test, M. phlei", "details": "Mycolicibacterium phlei"}},
  "data": [
    {"smiles": "CN(C(=O)N1CN2CN(C/C=C\\Cl)CN(C2)C1)c1ccccc1", "note": "[Example 2 c.]", "values": [
      {"measurement": "MIC", "setting": "E. coli", "result": 500, "unit": "µg/mL"},
      {"measurement": "MIC", "setting": "S. aureus", "result": 500, "unit": "µg/mL"},
      {"measurement": "MIC", "setting": "[1]", "result": 500, "unit": "µg/mL"},
      {"measurement": "MIC", "setting": "A. aerogenes", "result": 500, "unit": "µg/mL"},
      {"measurement": "MIC", "setting": "B. subtilis", "result": 500, "unit": "µg/mL"},
      {"measurement": "MIC", "setting": "mentagrophytes", "result": 100, "unit": "µg/mL"},
      {"measurement": "MIC", "setting": "M. phlei", "result": 500, "unit": "µg/mL"}
    ]},
    {"smiles": "CCN(CC)C(=O)N1CN2CN(C/C=C\\Cl)CN(C2)C1", "note": "[Example 2 a.]", "values": [
      {"measurement": "MIC", "setting": "E. coli", "result": 100, "unit": "µg/mL"},
      {"measurement": "MIC", "setting": "S. aureus", "result": 500, "unit": "µg/mL"},
      {"measurement": "MIC", "setting": "A. aerogenes", "result": 100, "unit": "µg/mL"},
      {"measurement": "MIC", "setting": "B. subtilis", "result": 100, "unit": "µg/mL"},
      {"measurement": "MIC", "setting": "mentagrophytes", "result": 100, "unit": "µg/mL"},
      {"measurement": "MIC", "setting": "M. phlei", "result": 500, "unit": "µg/mL"}
    ]},
    {"smiles": "CN(C)C(=O)N1CN2CN(C/C=C\\Cl)CN(C2)C1", "note": "[Example 1, N,N-Dimethyl-3-Carboxamide-7-cis-(3-Chloro-2-Propenyl)-1,3,5,7-Tetraazabicyclo(3.3.1)Nonane]", "values": [
      {"measurement": "MIC", "setting": "E. coli", "result": 500, "unit": "µg/mL"},
      {"measurement": "MIC", "setting": "S. aureus", "result": 500, "unit": "µg/mL"},
      {"measurement": "MIC", "setting": "[1]", "result": 500, "unit": "µg/mL"},
      {"measurement": "MIC", "setting": "A. aerogenes", "result": 100, "unit": "µg/mL"},
      {"measurement": "MIC", "setting": "B. subtilis", "result": 100, "unit": "µg/mL"},
      {"measurement": "MIC", "setting": "mentagrophytes", "result": 100, "unit": "µg/mL"},
      {"measurement": "MIC", "setting": "M. phlei", "result": 500, "unit": "µg/mL"}
    ]},
    {"smiles": "CN(C)C(=S)N1CN2CN(C/C=C\\Cl)CN(C2)C1", "note": "[Example 2 d.]", "values": [
      {"measurement": "MIC", "setting": "E. coli", "result": 500, "unit": "µg/mL"},
      {"measurement": "MIC", "setting": "S. aureus", "result": 500, "unit": "µg/mL"},
      {"measurement": "MIC", "setting": "[1]", "result": 500, "unit": "µg/mL"},
      {"measurement": "MIC", "setting": "A. aerogenes", "result": 500, "unit": "µg/mL"},
      {"measurement": "MIC", "setting": "B. subtilis", "result": 100, "unit": "µg/mL"},
      {"measurement": "MIC", "setting": "mentagrophytes", "result": 100, "unit": "µg/mL"},
      {"measurement": "MIC", "setting": "M. phlei", "result": 500, "unit": "µg/mL"}
    ]},
    {"smiles": "O=C(N1CN2CN(C/C=C\\Cl)CN(C2)C1)N(c1ccccc1)c1ccccc1", "note": "[Example 2 b.]", "values": [
      {"measurement": "MIC", "setting": "E. coli", "result": 500, "unit": "µg/mL"},
      {"measurement": "MIC", "setting": "S. aureus", "result": 500, "unit": "µg/mL"},
      {"measurement": "MIC", "setting": "[1]", "result": 500, "unit": "µg/mL"},
      {"measurement": "MIC", "setting": "A. aerogenes", "result": 500, "unit": "µg/mL"},
      {"measurement": "MIC", "setting": "B. subtilis", "result": 500, "unit": "µg/mL"},
      {"measurement": "MIC", "setting": "mentagrophytes", "result": 100, "unit": "µg/mL"},
      {"measurement": "MIC", "setting": "M. phlei", "result": 500, "unit": "µg/mL"}
    ]}
  ]
}
